Calls of active or inactive are those of the source. The calls are words filed in the database; no cut-off is given here.
How the values were obtained:
CCRF-CEM [1] = assay: Induction of apoptosis in human CCRF-CEM cells assessed as late apoptotic cells at 0.5 uM incubated for 48 hrs by Annexin V-FITC/PI staining based flow cytometry (reference value: 3.2 %); format: functional
CCRF-CEM [2] = assay: Induction of apoptosis in human CCRF-CEM cells assessed as early apoptotic cells at 1 uM incubated for 48 hrs by Annexin V-FITC/PI staining based flow cytometry (reference value: 13.4 %); format: functional
CCRF-CEM [3] = assay: Induction of cell cycle arrest in human CCRF-CEM cells assessed as cell accumulation at S phase at 0.25 uM incubated for 24 hrs by PI staining based flow cytometry analysis (reference value: 15.5 %); format: functional
CCRF-CEM [4] = assay: Inhibition of cell proliferation in human CCRF-CEM cells assessed as decrease in cell number upto 4 uM incubated for 12 hrs by cell counter analysis; format: functional, cell-based
CCRF-CEM [5] = assay: Induction of apoptosis in human CCRF-CEM cells assessed as viable cells at 2 uM incubated for 48 hrs by Annexin V-FITC/PI staining based flow cytometry (reference value: 83.4 %); format: functional; conditions: read-out: Activity
SH-SY5Y = assay: Antiproliferative activity against human SH-SY5Y cells assessed as cell growth inhibition incubated for 72 hrs by MTT assay; format: functional, cell-based
CCRF-CEM [6] = assay: Antiproliferative activity against human CCRF-CEM cells assessed as cell growth inhibition incubated for 24 to 72 hrs by CCK8 assay; format: functional, cell-based; conditions: dose 0.1875-20 µM, time 24-72 hrs
[7] = Antiproliferative activity against human L02 cells assessed as cell growth inhibition incubated for 72 hrs by MTT assay; format: toxicity, cell-based
[8] = Selectivity index, ratio of IC50 for human L02 cells to IC50 for human CCRF-CEM cells; format: toxicity; conditions: L02 cells and CCRF-CEM cells, read-out: Selectivity Index
CCRF-CEM [9] = assay: Induction of apoptosis in human CCRF-CEM cells assessed as viable cells at 1 uM incubated for 48 hrs by Annexin V-FITC/PI staining based flow cytometry (reference value: 83.4 %); format: functional; conditions: read-out: Activity
CCRF-CEM [10] = assay: Induction of apoptosis in human CCRF-CEM cells assessed as early apoptotic cells at 0.25 uM incubated for 48 hrs by Annexin V-FITC/PI staining based flow cytometry (reference value: 13.4 %); format: functional
CCRF-CEM [11] = assay: Induction of cell cycle arrest in human CCRF-CEM cells assessed as cell accumulation at G2/M phase at 2 uM incubated for 24 hrs by PI staining based flow cytometry analysis (reference value: 61.3 %); format: functional
CCRF-CEM [12] = assay: Induction of cell cycle arrest in human CCRF-CEM cells assessed as cell accumulation at G1 phase at 0.25 uM incubated for 24 hrs by PI staining based flow cytometry analysis (reference value: 24.1 %); format: functional
CCRF-CEM [13] = assay: Downregulation of ROS level in human CCRF-CEM cells assessed as effect on H2O2 level at 0.125 to 0.5 uM incubated for 12 hrs in presence of NADPH by DCFH-DA probe based flow cytometry analysis; format: functional, cell-based; conditions: dose 0.125-0.5 µM
CCRF-CEM [14] = assay: Induction of apoptosis in human CCRF-CEM cells assessed as early apoptotic cells at 0.5 uM incubated for 48 hrs by Annexin V-FITC/PI staining based flow cytometry (reference value: 13.4 %); format: functional
CCRF-CEM [15] = assay: Induction of apoptosis in human CCRF-CEM cells assessed as viable cells at 0.5 uM incubated for 48 hrs by Annexin V-FITC/PI staining based flow cytometry (reference value: 83.4 %); format: functional; conditions: read-out: Activity
U-118-MG = assay: Antiproliferative activity against human U-118-MG cells assessed as cell growth inhibition incubated for 72 hrs by MTT assay; format: functional, cell-based
CCRF-CEM [16] = assay: Induction of apoptosis in human CCRF-CEM cells assessed as nuclear collapse upto 4 uM incubated for 48 hrs by Hoechst staining based fluorescent microscopic analysis; format: functional, cell-based
CCRF-CEM [17] = assay: Induction of cell cycle arrest in human CCRF-CEM cells assessed as cell accumulation at S phase at 2 uM incubated for 24 hrs by PI staining based flow cytometry analysis (reference value: 15.5 %); format: functional
CCRF-CEM [18] = assay: Induction of apoptosis in human CCRF-CEM cells incubated for 48 hrs by Hoechst staining based fluorescent microscopy; format: functional, cell-based; conditions: dose 1-4 µM
CCRF-CEM [19] = assay: Induction of apoptosis in human CCRF-CEM cells assessed as viable cells at 0.25 uM incubated for 48 hrs by Annexin V-FITC/PI staining based flow cytometry (reference value: 83.4 %); format: functional; conditions: read-out: Activity
CCRF-CEM [20] = assay: Induction of cell cycle arrest in human CCRF-CEM cells assessed as cell accumulation at G2/M phase at 0.25 uM incubated for 24 hrs by PI staining based flow cytometry analysis (reference value: 61.3 %); format: functional
K562 = assay: Antiproliferative activity against human K562 cells assessed as cell growth inhibition incubated for 72 hrs by MTT assay; format: functional, cell-based; conditions: K562, 72 h
CCRF-CEM [21] = assay: Induction of DNA damage in human CCRF-CEM cells assessed as increase in gammaH2AX phosphorylation incubated for 24 hrs by DAPI staining based immunofluorescence microscopic analysis; format: functional, cell-based; conditions: dose 1-4 µM
CCRF-CEM [22] = assay: Induction of apoptosis in human CCRF-CEM cells assessed as late apoptotic cells at 1 uM incubated for 48 hrs by Annexin V-FITC/PI staining based flow cytometry (reference value: 3.2 %); format: functional
A549 = assay: Antiproliferative activity against human A549 cells assessed as cell growth inhibition incubated for 72 hrs by MTT assay; format: functional, cell-based; conditions: A549, 72 h
CCRF-CEM [23] = assay: Induction of apoptosis in human CCRF-CEM cells assessed effect on cleaved caspase-3 expression at 0.25 to 0.5 uM incubated for 48 hrs by Western blot analysis; format: functional, cell-based; conditions: dose 0.25-0.5 µM
CCRF-CEM [24] = assay: Induction of apoptosis in human CCRF-CEM cells assessed as necrotic cells at 4 uM incubated for 48 hrs by Annexin V-FITC/PI staining based flow cytometry (reference value: 0.0 %); format: functional
CCRF-CEM [25] = assay: Downregulation of ROS level in human CCRF-CEM cells assessed as increase in GPx activity at 0.125 to 2 uM incubated for 12 hrs in presence of NADPH by […]; format: functional, cell-based; conditions: dose 0.125-2 µM
CCRF-CEM [26] = assay: Induction of cell cycle arrest in human CCRF-CEM cells assessed as cell accumulation at S phase at 0.5 uM incubated for 24 hrs by PI staining based flow cytometry analysis (reference value: 15.5 %); format: functional
CCRF-CEM [27] = assay: Induction of DNA damage in human CCRF-CEM cells assessed as increase in gammaH2AX phosphorylation at 1 to 4 uM incubated for 24 hrs by DAPI staining based immunofluorescence microscopic analysis; format: functional, cell-based; conditions: dose 1-4 µM
CCRF-CEM [28] = assay: Induction of cell cycle arrest in human CCRF-CEM cells assessed as cell accumulation at G2/M phase at 1 uM incubated for 24 hrs by PI staining based flow cytometry analysis (reference value: 61.3 %); format: functional
CCRF-CEM [29] = assay: Induction of apoptosis in human CCRF-CEM cells assessed as late apoptotic cells at 4 uM incubated for 48 hrs by Annexin V-FITC/PI staining based flow cytometry (reference value: 3.2 %); format: functional
CCRF-CEM [30] = assay: Induction of apoptosis in human CCRF-CEM cells assessed effect on procaspase-3 expression at 0.25 to 0.5 uM incubated for 48 hrs by Western blot analysis; format: functional, cell-based; conditions: dose 0.25-0.5 µM

Work on `C[C@@H]1CC[C@H]2[C@@H](C)C(OC(=O)c3ccc(N(CCCl)CCCl)cc3)O[C@@H]3O[C@@]4(C)CC[C@@H]1[C@]32OO4` (some centres undefined) yielded an Activity (CCRF-CEM [1]) of 6.9%, an Activity (CCRF-CEM [2]) of 26.7% and an Activity (CCRF-CEM [3]) of 7.9%. The inhibition (CCRF-CEM [4]) was “Active”, the viability at 2 µM (CCRF-CEM [5]) was 53.8% and the IC50 (SH-SY5Y) was over 40 µM. The Activity (CCRF-CEM [6]) was “Dose-Dependent Effect”, the IC50 at 72 h [7] was over 40 µM and the selectivity ratio [8] was 44.7. It also gave a viability at 1 µM (CCRF-CEM [9]) of 60.4%, an Activity (CCRF-CEM [10]) of 20.5% and an Activity (CCRF-CEM [11]) of 67.1%. The Activity (CCRF-CEM [12]) was 26.8%, the Activity (CCRF-CEM [13]) was “Active” and the Activity (CCRF-CEM [14]) was 78.6%. For the same compound, the viability at 0.5 µM (CCRF-CEM [15]) was 64.4%, the IC50 (U-118-MG) was over 40 µM and the Activity (CCRF-CEM [16]) was “Active”. For the same compound, the Activity (CCRF-CEM [17]) was 6.5%, the Activity (CCRF-CEM [18]) was “Dose-Dependent Effect” and the viability at 0.25 µM (CCRF-CEM [19]) was 67.7%. For the same compound, the Activity (CCRF-CEM [20]) was 65.9%, the IC50 (K562) was 22 µM and the Activity (CCRF-CEM [21]) was “Dose-Dependent Effect”. For the same compound, the Activity (CCRF-CEM [22]) was 12.8%, the IC50 (A549) was 2.87 µM and the AC30 (CCRF-CEM [23]) was “inactive”. For the same compound, the Activity (CCRF-CEM [24]) was 0.1%, the Activity (CCRF-CEM [25]) was “Active” and the Activity (CCRF-CEM [26]) was 6.8%. The Activity (CCRF-CEM [27]) was “Active”, the Activity (CCRF-CEM [28]) was 47.6% and the Activity (CCRF-CEM [29]) was 14.8%. For the same compound, the Activity (CCRF-CEM [30]) was “inactive”.

Reference: ChEMBL document CHEMBL5247590, “Novel nitrogen mustard-artemisinin hybrids with potent anti-leukemia action through DNA damage and activation of GPx” (Eur J Med Chem, 2022)
